# Laboratory results published in patent US20190167640A1, “METHODS FOR TREATMENT OF MUSCULAR DYSTROPHIES” (Akashi Therapeutics, Inc., priority 2013, published 2019).
# Entries after “also recorded” stand apart in the source; their conditions may differ.
# Legend:
# [1] = test system: diaphragm strips of exercised mdx mice; assay: Isometric contraction of diaphragm strips after in vivo treatment; settings: for twitch tension of diaphragm strips: exercised mdx mice, Compound (I) 30 mg/kg s.c., nandrolone 5 mg/kg s.c., PDN 1 mg/kg i.p., 6 days/week, 4-6 weeks; for fatigue of diaphragm (drop of force after 5 repetitive tetani) / tetanic force of diaphragm: same treatments; for fatigue of diaphragm (drop of force after 5 repetitive tetani): 5 tetani at 100 Hz, 5 sec intervals; for tetanic force of diaphragm: vehicle-treated exercised mdx groups pooled together (FIG. 2B)
# Protocol: Compound (I) and nandrolone were dissolved in 10% Ethanol/90% Corn Oil (Sigma-Aldrich) in order to have the final dosage needed in the volume of 0.1 ml/10 g body weight. PDN (from the commercial formulation URBASON) was diluted sterile water for injection (0.1 ml/10 g body weight). 40 mdx mice 5-6 weeks old (Charles River Italy for Jackson Lab) were first (at the beginning of the exercise/treatment period (Time 0)) randomized in groups homogeneous for body weight, fore limb strength and normalized force (fore limb strength/body weight), as follows: • 7 SEDENTARY MDX+VEHICLE (ethanol and corn oil) • 7 UNTREATED EXERCISED MDX+VEHICLE (ethanol and corn oil) • 9 EXERCISED MDX+Compound (I) 30 mg/kg • 8 EXERCISED MDX+Nandrolone 5 mg/kg • 3 EXERCISED MDX+VEHICLE (sterile water) • 6 EXERCISED MDX+PDN 1 mg/kg
# The duration of the treatment was 4-6 weeks. At the end of 4 weeks, 34 mice remained on the protocol, as follows: • 7 SEDENTARY MDX+VEHICLE (ethanol and corn oil) • 7 UNTREATED EXERCISED MDX+VEHICLE (ethanol and corn oil) • 6 EXERCISED MDX+Compound (I) 30 mg/kg • 5 EXERCISED MDX+Nandrolone 5 mg/kg • 3 EXERCISED MDX+VEHICLE (sterile water) • 6 EXERCISED MDX+PDN 1 mg/kg
# (§1) The chronic exercise consisted of 30 min running on horizontal treadmill at 12 m/min twice a week. Drug treatment started one day before the exercise protocol. At least 4 weeks of exercise were performed before starting the ex vivo experiments. In vivo parameters were monitored weekly throughout. Age of the mice at the time of ex-vivo experiments: 9-12 weeks. The effectiveness of the test compounds was then evaluated ex vivo for: • Mechanical properties of EDL muscle and diaphragm strips by isometric contraction • Mechanical threshold of EDL muscle, i.e. the voltage threshold for fiber contraction, as an index of excitation-contraction coupling mechanism and calcium homeostasis (two microelectode “point” voltage clamp method) • Cable parameters and macroscopic ionic conductance (two microelectrode current clamp recordings) • Spectrophotometric determination of plasma level of creatine kinase (CK), as an index of sarcolemmal damage, lactate dehydrogenase (LDH) as an index of metabolic sufferance, reactive oxygen species, as a marker of oxidative stress • Morphometric analysis of gastrocnemious (GC) muscle and diaphragm
# Standard isometric contraction measurements on both EDL muscle and diaphragm strips were obtained by electric field stimulation via two axial platinum wires. For each preparation, a preliminary stabilization procedure (for proper temperature equilibration and relaxation after handling) was followed by the determination of the optimal resting length, i.e. the resting tension that allowed the maximal tension to be elicited by 40V depolarizing steps of 0.2ms duration. The preparations were then allowed to rest for about 30 min before starting the recording procedure.
# Twitch tension: 5 single twitches elicited by pulses of 40 V and 0.2 ms (every 30 sec)→determination of maximal twitch tension and contraction kinetic (time to peak and half relaxation time);
# Force frequency curve: 450 ms trains of 0.2 ms 40V pulses from 10 to 140 Hz→determination of maximal tetanic tension and frequency for half-maximal activation (Hz50) Fatigue: 5 tetani at 100 Hz (450 ms) and 5 sec intervals→determination of % drop of tension
# [2] = test system: EDL muscle of exercised mdx mice; assay: Isometric and eccentric contraction of EDL muscle after in vivo treatment; settings: same treatments; for fatigue of EDL (drop during the first 5 tetani): tetani at 5 sec intervals
# [3] = test system: EDL myofibers of exercised mdx mice; assay: Mechanical threshold of EDL muscle (two microelectrode point voltage clamp); format: in vivo; settings: for mechanical threshold: potential (voltage threshold) for fiber contraction of EDL myofibers: Compound (I) 30 mg/kg, nandrolone 5 mg/kg, PDN 1 mg/kg, 6 days/week, 4 weeks, all pulse durations; for rheobase voltage of EDL muscles / time constant to reach the rheobase, EDL myofibers: same treatments; for rheobase voltage of EDL muscles: calculated from fit of strength-duration curve; for time constant to reach the rheobase, EDL myofibers: from fit of strength-duration curve
# Protocol: as §1
# Mechanical threshold (MT) is an electrophysiological index of excitation contraction-coupling and of calcium homeostasis (De Luca et al., JPET 2003; Fraysse et al., Neurobiol. Dis., 2004). The application of depolarizing voltage steps of increasing durations shifts the contraction for fiber contraction toward more negative potential until a constant rheobase voltage is reached. The rheobase voltage represents the voltage at which the calcium that is released from the sarcoplasmis reticulum and the calcium reuptaken are at the steady-state. A shift of rheobase voltage toward more negative potential, as occurring in dystrophic mdx EDL myofibers, is indicative of more calcium being available for contraction, either resulting from greater release or slower reuptake or higher basal cytosolic levels.
# In FIG. 30A, the data, expressed as the means±S.E.M. from 14 to 30 values from 2 to 5 preparations, show the voltages for the contraction of EDL myofibres (mechanical threshold) at increasing pulse duration in wild-type mice (WT, black circles) and in mdx mice treated with either vehicle (corn oil and water; Mdx+VTOT, white circles), 30 mg/kg Compound (I) (white triangles), 5 mg/kg nandrolone (upside-down black triangles) or 1 mg/kg PDN (white rhombus). The drugs were given 6 days per week. […] For some data points, the standard error bar is not visible because it is smaller than the symbol size. In FIGS. 30B and 30C, the rheobase voltage, in mV and the time constant, in ms, with relative standard errors, have been calculated from the fit of data points of the voltage-duration curves in A. In FIG. 30D, the total resting membrane ionic conductances (gm) in μS/cm^2 of EDL muscle fibres of the same experimental groups described in A are shown. The bars represent the means±SEM from the number of 3-5 prep/25-37 fibres. For each parameter, the significant differences between groups were evaluated using ANOVA for multiple comparisons (F values) and the Bonferroni t-test post hoc correction. Significant differences were found for rheobase voltage (F>4; p<0.003) and gm (F>7; p<0.0002).
# In FIG. 31A, the data, expressed as the means±S.E.M. from 27 to 41 values from 3 preparations, show the voltages for the contraction of EDL myofibres (mechanical threshold) at increasing pulse duration in wild type mice (WT, black circles) and in mdx mice treated with either corn oil (Mdx+V1, white circles) or Compound (I) at 0.3 (white square), 3 (black square) or 30 mg/kg (white triangles). The drugs were given 6 days per week. […] For some data points, the standard error bar is not visible because it is smaller than the symbol size. […]
# [4] = test system: EDL myofibers of exercised mdx mice; assay: Cable parameters and macroscopic ionic conductance of EDL myofibers (two microelectrode current clamp); format: in vivo; settings: Compound (I) 30 mg/kg, nandrolone 5 mg/kg, PDN 1 mg/kg, 6 days/week, 4-6 weeks
# Protocol: as §1
# Passive cable properties are calculated for the spatial and temporal changes of membrane potential in response to a hyperpolarizing square current pulses. […]
# exercised mdx mice = assay: Spectrophotometric determination of plasma creatine kinase, lactate dehydrogenase and reactive oxygen species; format: in vivo; settings: same treatments
# Protocol: as §1
# A marked elevation of plasma creatine kinase is a typical diagnostic marker of muscular dystrophy. In parallel an increase in lactate dehydrogenase is also observed as a sign of metabolic sufferance while an increase on reactive oxygen species can occur as a result of ongoing oxidative stress. Generally, these biochemical indices are further aggravated by the exercise protocol. However, in the present study all the three parameters CK, LDH and ROS were particularly altered in the sedentary mdx mice and therefore no remarkable effect of exercise was observed.
# [5] = test system: diaphragm and GC muscle of exercised mdx mice; assay: Histology and morphometric analysis of gastrocnemius (GC) muscle and diaphragm; format: in vivo; settings: preliminary morphometric analysis (FIG. 23)
# Protocol: as §1
# Representative pictures of histology profile of diaphragm and GC muscles in the various experimental conditions are shown in FIG. 22.
compound,measurement,setting,value
CN1C(=O)N(c2ccc(C#N)c(C(F)(F)F)c2)C(=O)[C@@]1(CO)c1ccccc1 [Compound (I)],twitch tension of diaphragm strips,[1],greater than those of untreated ones and no more significantly different with respect to those of weight
same,fatigue of diaphragm (drop of force after 5 repetitive tetani),[1],protection was observed
same,tetanic force of diaphragm,[1],"significantly greater than those of untreated, although still lower than weight ones"
same,frequency for half-maximal activation (Hz50) of EDL,[2],no significant effects
same,twitch/tetanus ratio of EDL,[2],no effect
same,mechanical threshold: potential (voltage threshold) for fiber contraction of EDL myofibers,[3],significant shift of the potential for fiber contraction toward weight values; also recorded: significantly more positive
same,mechanical threshold: voltage threshold values of EDL myofibres,"[3]; Compound (I) at 0.3, 3 or 30 mg/kg, 6 days per week, second study (up to 12 weeks), vs vehicle-treated mdx",significantly more positive
same,rheobase voltage of EDL muscles,[3],almost overlapping that of weight
same,"time constant to reach the rheobase, EDL myofibers",[3],remarkably shorter than those of untreated exercised and not significantly different with respect to that of weight
same,membrane resistance (Rm) and total membrane ionic conductance (gm) of EDL myofibers,[4],effects comparable to that of PDN
same,lactate dehydrogenase (LDH),exercised mdx mice,"slight, but not significant reduction"
"C[C@H]1C[C@@H]2[C@H]([C@@H](O)C[C@@]3(C)[C@H]2CC[C@]3(O)C(=O)CO)[C@@]2(C)C=CC(=O)C=C12 [PDN, α-methyl-prednisolone]",twitch tension of diaphragm strips,[1],the two anabolic compounds exerted a greater protection than PDN
same,fatigue of diaphragm (drop of force after 5 repetitive tetani),[1],protection was observed
same,tetanic force of diaphragm,[1],"significantly greater than those of untreated, although still lower than weight ones"
same,frequency for half-maximal activation (Hz50) of EDL,[2],no significant effects
same,twitch/tetanus ratio of EDL,[2],slight but not significant decrease
same,fatigue of EDL (drop during the first 5 tetani),[2],partial recovery
same,mechanical threshold: potential (voltage threshold) for fiber contraction of EDL myofibers,[3],less effective than Compound (I); also recorded: significantly more positive
same,rheobase voltage of EDL muscles,[3],values intermediate between untreated mdx and weight
same,"time constant to reach the rheobase, EDL myofibers",[3],effect of Compound (I) on this parameter was greater than that of nandrolone and PDN
same,membrane resistance (Rm) and total membrane ionic conductance (gm) of EDL myofibers,[4],effect consistent with that observed in previous studies
same,creatine kinase (CK),exercised mdx mice,lack of effect
same,lactate dehydrogenase (LDH),exercised mdx mice,lack of effect
same,fiber area of both normal and centronucleated fibers,[5],increase
C[C@]12CC[C@H]3[C@@H](CCC4=CC(=O)CC[C@@H]43)[C@@H]1CC[C@@H]2O [nandrolone],twitch tension of diaphragm strips,[1],greater than those of untreated ones and no more significantly different with respect to those of weight
same,tetanic force of diaphragm,[1],"significantly greater than those of untreated, although still lower than weight ones"
same,frequency for half-maximal activation (Hz50) of EDL,[2],no significant effects
same,twitch tension of EDL,[2],tendency toward an increase
same,twitch/tetanus ratio of EDL,[2],no effect
same,fatigue of EDL (drop during the first 5 tetani),[2],partial recovery
same,mechanical threshold: potential (voltage threshold) for fiber contraction of EDL myofibers,[3],less effective than Compound (I); also recorded: significantly more positive
same,rheobase voltage of EDL muscles,[3],values intermediate between untreated mdx and weight
same,"time constant to reach the rheobase, EDL myofibers",[3],effect of Compound (I) on this parameter was greater than that of nandrolone and PDN
same,fiber area of both normal and centronucleated fibers,[5],increase
